According to article PMC9928118, “Funneling modulatory peptide design with generative models: Discovery and characterization of disruptors of calcineurin protein-protein interactions” (PLOS Computational Biology, 2023):

What was measured:
GST-tagged Cn [1] = assay: PEPperPRINT peptide microarray binding assay with GST-tagged Cn; settings: GST-tagged Cn, mean over the duplicate spots (Location on chip)
Method in brief: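 Qualitative binding: peptides printed on a PEPperPRINT microarray were incubated overnight at 4 °C with 1 mg/ml GST-tagged Cn, then detected with Alexa-Fluor 647 anti-GST antibody. Log fluorescence was baseline-corrected, averaged over duplicate spots, Z-normalized and averaged across five repeats.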

GST-tagged Cn [2] = assay: as above; settings: max over the duplicate spots (Location on chip)

Row | Chip Fluorescence (mean) (GST-tagged Cn [1]) | Chip Fluorescence (max) (GST-tagged Cn [2]) | Sequence
1 | -0.04845 | 2.513 | ASEANPEITVTPAELP [SeqRBMlowT_1250]
2 | -0.3019 | 2.175 | DCIGFCSVPVMYAPNH [Seqrandom_1239]
3 | -0.878 | 2.266 | EPYVAFFYQFSHDPKS [Seqshuffled_9939]
4 | 0.4694 | 2.049 | FTMKFAWALPQCYVHC [Seqrandom_9941]
5 | 0.4498 | 2.042 | GAYMCPFMSWQDCGQR [SeqRBMlowT_4796]
6 | -0.03327 | 2.314 | GGPSTPGRQNNPLAPS [SeqRTS1_Zymoseptoria_tritici]
7 | 0.833 | 2.018 | GNKEFSPLNVEGLSGN [Seqshuffled_9463]
8 | -0.05077 | 2.002 | GSLLIPHCDMSAGGSY [SeqRBM_2528]
9 | -0.1535 | 2.385 | KAYMCPFMQFIDGGRR [SeqRBMlowT_502]
10 | 0.9697 | 2.568 | KAYMCPYGSFTYGGRR [SeqRBM_3412]
11 | 1.763 | 2.501 | KAYMCPYMQFIEGGRR [SeqSFB3_Ictalurus_punctatus]
12 | 0.2344 | 2.355 | KELANLRVTPPDNGTL [SeqRBM_2710]
13 | 0.511 | 2.045 | KKMSPPCISVHPPDED [SeqRBMlowT_7695]

Further lines, the sequence ahead of its results:

Row | Sequence | Chip Fluorescence (mean) (GST-tagged Cn [1]) | Chip Fluorescence (max) (GST-tagged Cn [2])
14 | ADETQPGIVVHVCELP [SeqRBMlowT_352] | 0.6468 | 2.166
15 | AEVGIVRFSRHPVAQD [Seqshuffled_9961] | 0.06577 | 2.2
16 | ASSANPEITVTPAELP [SeqRBMlowT_4424] | 0.4111 | 2.528
17 | ESRYRRFRQFQAPKVD [Seqshuffled_9523] | 1.1019 | 2.434
18 | FQTDAPTIPIDQAPIC [SeqRBM_9788] | 0.3576 | 1.993
19 | GFETTPSIVVHVCEED [SeqRBMlowT_1939] | 0.4497 | 2.448
20 | GGPGTPSRQGQTAAPS [SeqRBM_5534] | -0.2851 | 2.523
21 | GNDDCPEVVVHPPEED [SeqRBMlowT_7697] | 0.9366 | 2.095
22 | GTDLRQQTAAQPNDGA [Seqshuffled_4362] | 0.6141 | 2.523
23 | HCRFEWPFGFSMIRYP [Seqrandom_9994] | -1.666 | 2.458
24 | HDLQCVINLHENACKT [Seqrandom_9996] | -0.1329 | 2.151
25 | HIIIVWAVSEVKYVQL [Seqrandom_9992] | 0.6897 | 1.914
26 | HPYMGPKIQFHSGGRK [SeqRBM_457] | 0.3342 | 2.294
27 | HSKLIPKLSIQSPVEH [SeqRBMlowT_3447] | 0.373 | 2.177
28 | HVSSSPDVTLKPPQHR [SeqRBMlowT_2147] | 0.4725 | 2.217
29 | KADYTISLILHYDAIE [Seqshuffled_9660] | 0.7325 | 1.911
30 | KAYMCPYMQFIAGGRK [SeqRBM_8989] | 0.7869 | 1.932
31 | KAYMNPFMQFIDGGRK [SeqRBMlowT_6686] | 0.8271 | 2.02
32 | KKMAPPAINIDPAPTN [SeqRBMlowT_321] | -0.1981 | 2.529
